Here are results for 24 molecules from patent US20250340574A1, “MODULATORS OF CYSTIC FIBROSIS TRANSMEMBRANE CONDUCTANCE REGULATOR” (Vertex Pharmaceuticals Incorporated, priority 2022, published 2025).

The structures appear in SMILES notation. Like-named read-outs stand apart in the source and are kept apart here.

This assay addresses T1, CFTR (F508del/MF-HBE cells) (Homo sapiens, UniProt P13569, DEL508-508).
T1 construct: human bronchial epithelial (HBE) cells derived from CF subjects heterozygous for F508del and a minimal function CFTR mutation (F508del/MF-HBE); endogenous in cells; host or cells: Primary human bronchial epithelial cells from CF subjects (F508del/MF genotype), differentiated at an air-liquid interface
In words: Ussing chamber assay of CFTR-mediated short-circuit currents, Assay C (0.026 μM to 25 μM, 6 concentrations). The class given is cell-based. The settings on record: with 33 nM potentiator and 18 μM Tezacaftor, 20% human serum; for Emax: read-out: C Max activity (%). As for the experimental part:
Ussing chamber experiments were performed using human bronchial epithelial (HBE) cells derived from CF subjects heterozygous for F508del and a minimal function CFTR mutation (F508del/MF-HBE) and cultured as previously described (Neuberger T, Burton B, Clark H, Van Goor F Methods Mol Biol 2011:741:39-54). After four days the apical media was removed, and the cells were grown at an air liquid interface for >14 days prior to use.
To isolate the CFTR-mediated short-circuit (ISC) current, F508del/MF-HBE grown on Costar® Snapwell™ cell culture inserts were mounted in an Ussing chamber and the transepithelial ISC was measured under voltage-clamp recording conditions (Vhold=0 mV) at 37° C. The basolateral solution contained (in mM) 145 NaCl, 0.83 K2HPO4, 3.3 KH2PO4, 1.2 MgCl2, 1.2 CaCl2, 10 Glucose, 10 HEPES (pH adjusted to 7.4 with NaOH) and the apical solution contained (in mM) 145 NaGluconate, 1.2 MgCl2, 1.2 CaCl2, 10 glucose, 10 HEPES (pH adjusted to 7.4 with NaOH) and 30 μM amiloride to block the epithelial sodium channel. Forskolin (20 μM) was added to the apical surface to activate CFTR, followed by apical addition of a CFTR inhibitor cocktail consisting of BPO, GlyH-101, and CFTR inhibitor 172 (each at 20 μM final assay concentration) to specifically isolate CFTR currents. The CFTR-mediated ISC (μA/cm^2) for each condition was determined from the peak forskolin response to the steady-state current following inhibition.
The activity of the CFTR corrector compounds on the CFTR-mediated ISC was determined in Ussing chamber studies as described above. The F508del/MF-HBE cell cultures were either incubated with the corrector compounds at a range of concentrations in combination with 33 nM (6R,12R)-17-amino-12-methyl-6,15-bis(trifluoromethyl)-13,19-dioxa-3,4,18-triazatricyclo[12.3.1.12,5]nonadeca-1(18),2,4,14,16-pentaen-6-ol and 18 μM Tezacaftor or were incubated with the corrector compounds at a single fixed concentration of 1 μM in combination with 44 nM (6R,12R)-17-amino-12-methyl-6,15-bis(trifluoromethyl)-13,19-dioxa-3,4,18-triazatricyclo[12.3.1.12,5]nonadeca-1(18),2,4,14,16-pentaen-6-ol and 18 μM Tezacaftor for 18-24 hours at 37° C. and in the presence of 20% human serum. The concentration of corrector compounds with 44 nM or 33 nM (6R,12R)-17-amino-12-methyl-6,15-bis(trifluoromethyl)-13,19-dioxa-3,4,18-triazatricyclo[12.3.1.12,5]nonadeca-1(18),2,4,14,16-pentaen-6-ol and 18 μM Tezacaftor during the 18-24 hours incubations was kept constant throughout the Ussing chamber measurement of the CFTR-mediated ISC to ensure compounds were present throughout the entire experiment. The efficacy and potency of the putative F508del correctors was compared to that of the known Vertex corrector, (14S)-8-[3-(2-{Dispiro[2.0.2.1]heptan-7-yl}ethoxy)-1H-pyrazol-1-yl]-12,12-dimethyl-2λ^6-thia-3,9,11,18,23-pentaazatetracyclo[17.3.1.111,14.05,10]tetracosa-1(22),5,7,9,19(23),20-hexaene-2,2,4-trione, in combination with 18 μM Tezacaftor and 1 μM Ivacaftor.
• Assay A: 0.1 μM to 25 μM, 6 concentrations • Assay B: 0.00001 μM to 25 μM, 12 concentrations • Assay C: 0.026 μM to 25 μM, 6 concentrations • Assay D: Activity at single concentration of 1 μM

T1 sequence (P13569 with tags, fused parts or gaps DEL508-508): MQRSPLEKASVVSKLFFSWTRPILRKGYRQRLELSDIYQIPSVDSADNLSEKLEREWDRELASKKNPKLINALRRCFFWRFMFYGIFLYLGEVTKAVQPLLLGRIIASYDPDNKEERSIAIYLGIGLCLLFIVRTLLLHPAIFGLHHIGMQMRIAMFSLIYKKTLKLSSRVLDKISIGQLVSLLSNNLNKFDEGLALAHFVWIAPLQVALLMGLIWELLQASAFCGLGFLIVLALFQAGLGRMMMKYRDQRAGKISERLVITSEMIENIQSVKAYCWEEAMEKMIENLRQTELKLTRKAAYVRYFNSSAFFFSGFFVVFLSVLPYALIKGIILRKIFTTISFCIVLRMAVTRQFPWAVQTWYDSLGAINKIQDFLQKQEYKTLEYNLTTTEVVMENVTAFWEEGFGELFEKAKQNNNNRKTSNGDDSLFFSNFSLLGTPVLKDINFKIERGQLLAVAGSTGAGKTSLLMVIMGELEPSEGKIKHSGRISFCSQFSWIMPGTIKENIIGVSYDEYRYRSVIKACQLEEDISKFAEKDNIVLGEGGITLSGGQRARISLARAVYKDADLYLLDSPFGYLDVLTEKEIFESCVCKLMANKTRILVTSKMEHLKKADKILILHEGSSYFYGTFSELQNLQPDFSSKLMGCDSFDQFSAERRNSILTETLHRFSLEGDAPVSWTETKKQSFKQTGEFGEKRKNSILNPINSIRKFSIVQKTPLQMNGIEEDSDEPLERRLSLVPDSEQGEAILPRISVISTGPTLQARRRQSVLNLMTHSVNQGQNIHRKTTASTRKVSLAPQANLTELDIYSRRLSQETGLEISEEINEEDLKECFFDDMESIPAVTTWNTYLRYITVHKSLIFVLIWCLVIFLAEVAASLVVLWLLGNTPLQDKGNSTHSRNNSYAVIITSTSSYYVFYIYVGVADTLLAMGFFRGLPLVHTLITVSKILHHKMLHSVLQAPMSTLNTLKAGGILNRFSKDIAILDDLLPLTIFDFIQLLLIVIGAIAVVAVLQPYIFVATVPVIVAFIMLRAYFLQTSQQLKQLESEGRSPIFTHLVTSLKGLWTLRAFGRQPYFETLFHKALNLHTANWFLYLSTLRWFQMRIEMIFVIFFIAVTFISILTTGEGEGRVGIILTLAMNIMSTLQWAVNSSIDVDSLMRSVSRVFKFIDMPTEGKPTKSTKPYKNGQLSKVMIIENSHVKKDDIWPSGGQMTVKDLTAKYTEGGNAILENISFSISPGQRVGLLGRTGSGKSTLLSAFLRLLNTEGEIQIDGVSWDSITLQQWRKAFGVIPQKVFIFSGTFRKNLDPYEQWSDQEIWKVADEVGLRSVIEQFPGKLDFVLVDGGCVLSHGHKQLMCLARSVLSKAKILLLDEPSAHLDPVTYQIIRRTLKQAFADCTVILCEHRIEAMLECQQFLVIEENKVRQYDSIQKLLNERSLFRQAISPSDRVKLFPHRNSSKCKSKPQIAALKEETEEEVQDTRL

Consider `Cc1cccc(C)c1-c1cc2nc(n1)NS(=O)(=O)c1cccc(c1)C(=O)N(Cc1cnc3cc(C(C)(C)C)n(C)c3n1)[C@H](C1CCCO1)CO2` (single isomer, unassigned) [IV-96], for which the EC50 (in general, the concentration needed to bring the measured effect to its halfway point) is less than 1 µM and the Emax is more than 60%.

As to `Cc1cccc(C)c1-c1cc2nc(n1)NS(=O)(=O)c1cccc(c1)C(=O)N(Cc1cnc3oc(C4CC4)cc3n1)[C@H](C[C@@H]1CCCCO1)CO2` [IV-86], the EC50 fell in the range of 3 to 30 µM and the Emax is more than 60%.

With `Cc1cccc(C)c1-c1cc2nc(n1)NS(=O)(=O)c1cccc(c1)C(=O)N(Cc1ncc3oc(C4CC4)cc3n1)[C@H](CC1(C)CC1)CO2` [Compound I-199], the EC50 lay within 3 to 30 µM. In addition, where the note is “18-24 hours”, the Emax is more than 60%.

Take `Cc1cccc(C)c1-c1cc2nc(n1)NS(=O)(=O)c1cccc(c1)C(=O)N(Cc1cnc3oc(C4CC4)cc3n1)[C@H]([C@H](C)OC(C)(C)C)CO2` (stereo in doubt) [IV-80]: the EC50 was 1 to 3 µM and the Emax was more than 60%.

In the case of `CCc1cccc(CC)c1-c1cc2nc(n1)NS(=O)(=O)c1cccc(c1)C(=O)N(Cc1cnc3oc(C4CC4)cc3n1)[C@H](CC(C)(C)C)CO2` [IV-68], the EC50 was 1 to 3 µM and the Emax was more than 60%.

On to `Cc1cccc(CC(C)C)c1-c1nc2nc(c1C)OC[C@@H](C[C@@H]1CCCCO1)N(Cc1cnc3cc(C(C)(C)C)n(C)c3n1)C(=O)c1cccc(c1)S(=O)(=O)N2` (atropisomer, axis not shown) [IV-81], for which the EC50 is less than 1 µM and the Emax was more than 60%.

On to `Cc1cccc(C)c1-c1cc2nc(n1)NS(=O)(=O)c1cccc(c1)C(=O)N(Cc1cnc3oc(C(C)(C)C)cc3n1)[C@H](C[C@@H]1CCCO1)CO2` [IV-83], for which the EC50 lay in the range of 1 to 3 µM and the Emax is more than 60%.

`Cc1cccc(C)c1-c1cc2nc(n1)NS(=O)(=O)c1cccc(c1)C(=O)N(Cc1cnc3oc(C4CCC4)cc3n1)[C@H](CC1(C)CC1)CO2` [Compound I-133]: the half-maximal effective concentration (EC50) is 3 to 30 µM. Moreover, the Emax (18-24 hours) was more than 60%.

With `Cc1cccc(C)c1-c1cc2nc(n1)NS(=O)(=O)c1cccc(c1)C(=O)N(Cc1cnc3cc(C4(C(F)(F)F)CC4)n(C)c3n1)[C@H](CC13CC(C1)C3)CO2` [IV-73], the EC50 was less than 1 µM and the Emax was more than 60%.

`Cc1cccc(C)c1-c1cc2nc(n1)NS(=O)(=O)c1cccc(c1)C(=O)N(Cc1nc3cc(C4CC4)oc3cc1F)[C@H](COC(C)C)CO2` [Compound I-198]: the EC50 is 1 to 3 µM. The Emax (18-24 hours) was more than 60%.

Turning to `COCCc1c(C(C)(C)C)n(C)c2nc(CN3C(=O)c4cccc(c4)S(=O)(=O)Nc4nc(cc(-c5c(C)cccc5C)n4)OC[C@H]3CC34CC(C3)C4)cnc12` [IV-82, (11R)-11-(1-bicyclo[1.1.1]pentanylmethyl)-12-[[6-tert-butyl-7-(2-methoxyethyl)-5-methyl-pyrrolo[2,3-b]pyrazin-3-yl]methyl]-6-(2,6-dimethylphenyl)-2,2-dioxo-9-oxa-2λ^6-thia-3,5,12,19-tetrazatricyclo[12.3.1.14,8]nonadeca-1(18),4(19),5,7,14,16-hexaen-13-one], the EC50 was less than 1 µM and the Emax is more than 60%.

In the case of `Cc1cccc(C)c1-c1cc2nc(n1)NS(=O)(=O)c1cccc(c1)C(=O)N(Cc1cnc3oc(C4CC4)cc3n1)[C@H]([C@H](C)OCc1ccccc1)CO2` [IV-62], the EC50 lay in the range of 3 to 30 µM and the Emax is more than 60%.

Regarding `Cc1cccc(C)c1-c1cc2nc(n1)NS(=O)(=O)c1cccc(c1)C(=O)N(Cc1cnc3cc(C4(C(F)(F)F)CC4)n(C)c3n1)[C@H](C[C@@H]1CCCO1)CO2` [IV-103], the EC50 fell in the range of 1 to 3 µM and the Emax was more than 60%.

For `Cc1cccc(C)c1-c1cc2nc(n1)NS(=O)(=O)c1cccc(c1)C(=O)N(Cc1ncc3oc(C4CC4)cc3n1)[C@H](CC13CC(C1)C3)CO2` [Compound I-209], the EC50 was in the range of 1 to 3 µM. Moreover, the Emax (18-24 hours) is more than 60%.

In the case of `Cc1cccc(C)c1-c1cc2nc(n1)NS(=O)(=O)c1cccc(c1)C(=O)N(Cc1cnc3oc(C(C)CO)cc3n1)[C@H](CC1(C)CC1)CO2` (stereo partly drawn) [Compound I-256], the EC50 lay within 1 to 3 µM. For the same molecule, the Emax (18-24 hours) is more than 60%.

With `Cc1cccc(C)c1-c1cc2nc(n1)NS(=O)(=O)c1cccc(c1)C(=O)N(Cc1cnc3oc(C(C)(C)C)cc3n1)[C@@H](CC1CC(F)(F)C1)CO2` [IV-57], the concentration for a half-maximal effect (EC50) was in the range of 3 to 30 µM and the Emax was more than 60%.

`Cc1cccc(C)c1-c1cc2nc(n1)NS(=O)(=O)c1cccc(c1)C(=O)N(Cc1cnc3c(n1)CN(C(C)C)C3=O)[C@H](CC1(C)CC1)CO2` [III-18]: the EC50 was in the range of 1 to 3 µM. In addition, where the note is “18-24 hours”, the Emax was more than 60%.

Take `CCc1cccc(CC)c1-c1cc2nc(n1)NS(=O)(=O)c1cccc(c1)C(=O)N(Cc1cnc3cc(C(C)(C)C)n(C)c3n1)[C@H](CC(C)(C)C)CO2` [IV-66]: the EC50 is less than 1 µM and the Emax was more than 60%.

With `Cc1cccc(C)c1-c1cc2nc(n1)NS(=O)(=O)c1cccc(c1)C(=O)N(Cc1cnc3oc(C4CC4)cc3n1)[C@@H](C1(C(C)C)CC1)CO2` (single isomer, unassigned) [IV-61, 12-[(6-cyclopropylfuro[2,3-b]pyrazin-2-yl)methyl]-6-(2,6-dimethylphenyl)-11-(1-isopropylcyclopropyl)-2,2-dioxo-9-oxa-2λ^6-thia-3,5,12,19-tetrazatricyclo[12.3.1.14,8]nonadeca-1(18),4(19),5,7,14,16-hexaen-13-one], the EC50 fell in the range of 1 to 3 µM and the Emax was more than 60%.

`Cc1cccc(C)c1-c1cc2nc(n1)NS(=O)(=O)c1cccc(c1)C(=O)N(Cc1cnc3cc(C(C)(C)C)n(C)c3n1)[C@@H](C(C1CCC1)C1CCC1)CO2` [IV-50]: the 50% effective concentration (EC50) is less than 1 µM and the Emax is more than 60%.

Take `Cc1cccc(CC(C)C)c1-c1nc2nc(c1C)OC[C@@H]([C@@H]1CCCO1)N(Cc1cnc3cc(C(C)(C)C)n(C)c3n1)C(=O)c1cccc(c1)S(=O)(=O)N2` (atropisomer, axis not shown) [IV-95]: the EC50 was less than 1 µM and the Emax is more than 60%.

For `Cc1cccc(CC(C)C)c1-c1nc2nc(c1C)OC[C@@H](CC1(C)CC1)N(Cc1cnc3cc(C(C)(C)C)n(C)c3n1)C(=O)c1cccc(n1)S(=O)(=O)N2` [IV-72], the EC50 is 1 to 3 µM and the Emax is more than 60%.

For the molecule `Cc1cccc(CC2CCCC2)c1-c1nc2nc(c1C)OC[C@@H](CC(C)(C)C)N(Cc1cnc3cc(C(C)C)n(C)c3n1)C(=O)c1cccc(c1)S(=O)(=O)N2` (atropisomer, axis not shown; (P)) [Compound I-196, (5P,11R)-6-[2-(cyclopentylmethyl)-6-methylphenyl]-11-(2,2-dimethylpropyl)-7-methyl-12-{[5-methyl-6-(propan-2-yl)-5H-pyrrolo[2,3-b]pyrazin-3-yl]methyl}-9-oxa-2λ^6-thia-3,5,12,19-tetraazatricyclo[12.3.1.1∧{4,8}]nonadeca-1(17),4(19),5,7,14(18),15-hexaene-2,2,13-trione], the EC50 was less than 1 µM. Also, the Emax (18-24 hours) was more than 60%.

Turning to `Cc1cccc(C)c1-c1cc2nc(n1)NS(=O)(=O)c1cccc(c1)C(=O)N(Cc1cnc3cc(C4(C(F)(F)F)CC4)n(C)c3n1)[C@H](CC1(C)CC1)CO2` [IV-75], the EC50 is 1 to 3 µM and the Emax was 30 to 60%.
